We go through three molecules from article PMC6520522, “In vitro and in vivo Metabolism of a Potent Inhibitor of Soluble Epoxide Hydrolase, 1-(1-Propionylpiperidin-4-yl)-3-(4-(trifluoromethoxy)phenyl)urea” (Frontiers in Pharmacology, 2019).

In general, IC50 refers to the point on the concentration scale where inhibition reaches its midpoint.

The nature of data set [1]: Urine levels of TPPU and metabolites after single oral dose in rats. It is filed as in vivo. To be noted: rat, single oral dose 10 mg/kg TPPU; for Cmax: male, Sprague Dawley, urine. Here is the method:
(§1) Healthy male rats (Sprague Dawley, n = 4) were housed in temperature-controlled housing with ad libitum standard chow and drinking water. Each rat received TPPU (dissolved in 0.5 mL PEG400) at a dose of 10 mg/kg by oral gavage in order to generate significant amounts of metabolites while corresponding to previous efficacious concentration doses. Both blood and urine samples were collected. Blood samples (10 μL) at time points of 0 (before dosing), 0.25, 0.5, 1, 2, 4, 8, 12, 24, 48, and 72 h post dose were collected from the tail vein. Collected blood samples were transferred to Eppendorf tubes containing 90 μL of EDTA solution (0.1% EDTA and 0.1% acetic acid) and were immediately shaken to avoid blood coagulation. The urine and feces samples were passively collected at the time points of 8, 12, 24, 48, and 72 h post dose. TAPU (10 μL) of 1 μM in methanol was added in each blood and urine sample as an internal standard solution. The blood sample extraction was performed with 200 μL ethyl acetate by liquid-liquid extraction. The representative urine samples were subjected to protein precipitation prior to analysis of TPPU and Phase I metabolites. Briefly, urine (10 μL) was treated with 50 μL acetonitrile. After vortex mixing and centrifugation, the supernatant was collected. The feces samples (50–100 mg) were extracted using 600 μL extraction solution (MeOH: EA = 1:1). The mixtures were kept at −20°C overnight to give efficient extraction of TPPU and its metabolites. On day 2, after vortex mixing and centrifugation, the supernatant was collected. The remaining residue was extracted an additional time with 300 μL extraction solution, and the supernatant was combined after centrifugation. The collected supernatants were dried using a speed vacuum concentrator and reconstituted in 50 μL of 100 nM CUDA solution in methanol. In addition, urine (10 μL) was diluted with water (50 μL) and then subjected to analysis of glucuronide or sulfate conjugates.
(§2) LC-MS/MS analysis was conducted on an Agilent SL 1200 series LC system (Agilent, Palo Alto, CA) connected to a 4,000 Qtrap mass spectrometer (Applied Biosystems Instrument Corporation, Foster City, CA) with Turbo V ion source. Liquid chromatography was performed on a Kinetex® C18 column (100 × 2.1 mm, 1.7 μm). Three μL solution was injected onto the column held at 45°C for analysis. Mobile phase A and B were water with 0.1% acetic acid and acetonitrile with 0.1% acetic acid, respectively. The LC flow rate was 300 μL/min.
(§3) The mass spectrometer was operated in both negative and positive modes. Three different scan types were employed to perform mass spectrometry analysis, including product ion scan, precursor ion scan (optimized parameters in Table S4) and MRM scan (optimized parameters in Table S5).

Assay in data set [2]: as above
Format: in vivo. To be noted: male, Sprague Dawley, rat, single oral dose 10 mg/kg TPPU, n = 3; for concentration at 8 h: 8h post dose; for concentration at 12 h: 12h post dose; for concentration at 24 h: 24h post dose; for concentration at 48 h: 48h post dose; for concentration at 72 h: 72h post dose.

Another data set addresses T1, recombinant human sEH (Homo sapiens, UniProt P34913).
T1 sequence (P34913 1-555): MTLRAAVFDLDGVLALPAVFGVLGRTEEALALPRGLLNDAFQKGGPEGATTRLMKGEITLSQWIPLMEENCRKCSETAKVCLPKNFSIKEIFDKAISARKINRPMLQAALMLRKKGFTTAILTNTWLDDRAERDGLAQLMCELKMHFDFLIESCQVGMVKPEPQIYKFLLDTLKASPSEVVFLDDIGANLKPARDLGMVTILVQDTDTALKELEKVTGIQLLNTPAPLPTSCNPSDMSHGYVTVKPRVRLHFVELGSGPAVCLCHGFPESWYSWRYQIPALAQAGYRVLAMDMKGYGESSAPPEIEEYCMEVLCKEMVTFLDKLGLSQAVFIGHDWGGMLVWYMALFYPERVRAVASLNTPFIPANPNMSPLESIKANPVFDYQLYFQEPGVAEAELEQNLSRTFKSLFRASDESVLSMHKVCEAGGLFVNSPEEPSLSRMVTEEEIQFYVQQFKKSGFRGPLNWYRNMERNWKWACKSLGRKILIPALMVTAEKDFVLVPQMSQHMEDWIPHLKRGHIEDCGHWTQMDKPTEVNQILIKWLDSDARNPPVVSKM
The data set is described as follows: sEH inhibition potency, CMNPC fluorescent assay. It is filed as biochemical. The conditions noted are these: for IC50: CMNPC fluorescent assay, recombinant human sEH 1 nM, 30°C, average of three replicates, read-out: HsEH IC50. Here is the method: Briefly, recombinant human sEH [1 nM in sodium phosphate buffer (0.1 M, pH = 7.4, 0.1 mg/mL BSA)] was incubated with each analyte (0.1 < [I]final < 10,000 nM) at 30°C for 5 min. Then, the reaction was started with the addition to CMNPC ([S]final = 5 μM). The reaction was monitored kinetically for 10 min at 30°C. The formation of the fluorescent product 6-methoxynaphthaldehyde (λexcitation = 330 nm, λemission = 465 nm, 30°C) was measured every 30 s. IC50 values were determined by regression of the remaining activity in function of the inhibitor concentrations. Assays were run in triplicate and IC50 values are the averages of three replicates.

The nature of data set [3]: Feces levels of TPPU and metabolites after single oral dose in rats. Format: in vivo. The conditions noted are these: rat, single oral dose 10 mg/kg TPPU; for concentration at 8 h / concentration at 12 h / concentration at 24 h / concentration at 48 h / concentration at 72 h / Cmax: male, Sprague Dawley, feces; for concentration at 8 h: 8h post dose; for concentration at 8 h / concentration at 12 h / concentration at 24 h / concentration at 48 h / concentration at 72 h: n = 3; for concentration at 12 h: 12h post dose; for concentration at 24 h: 24h post dose; for concentration at 48 h: 48h post dose; for concentration at 72 h: 72h post dose.

Data set [4] in a line: Blood pharmacokinetics of TPPU and its metabolites after single oral dose in rats. Format: in vivo. To be noted: for half-life: rat, po, n = 4, read-out: T1/2 (half-life) (converted); for share of the total TPPU-related exposure in blood: single oral dose of TPPU, over 72 h. As for the experimental part:
as §1, §2, §3

Data set [5] in a line: In vitro metabolism of TPPU in liver S9 fractions. To be noted: for formation of metabolite in liver S9 fractions: with NADPH regeneration system, rat, mouse, dog, monkey, human, 2 h. Format: in vitro ADME, human, monkey, dog, rat, mouse. As for the experimental part: The in vitro study of TPPU metabolism was conducted following previous methods as described (Watanabe and Hammock, [2001]). Briefly, 1 μL of TPPU (1 mM in DMSO; [TPPU]final = 10 μM) was mixed with 94 μL of diluted liver S9 fractions (final, 0.05 mg protein/mL) from human, monkey, dog, rat, and mouse and incubations were conducted in a 10 mL glass vial. After 5 min preincubation at 37°C, the reaction was initiated by adding 5 μL of NADPH regeneration solution. The NADPH regeneration solution was prepared by mixing 50 μL of NADP^+ (100 mM), 50 μL of G6P (500 mM), 50 μL of G6PDH (100 Unit/mL), and 100 μL of sodium phosphate buffer. Incubation without NADPH regeneration solution was used as control. Reactions were kept for 2 h and terminated by addition of 100 μL of ice-cold methanol containing CUDA (200 nM) as an internal standard. The mixture was followed by vigorous mixing for 2 min and centrifuging at 10,000^*g for 10 min. Each supernatant was transferred to an HPLC vial and kept under 4°C until LC-MS analysis.
as §2

[6] abbreviates: male, Sprague Dawley, whole blood, 10 mg/kg, oral gavage 10 mg/kg.

Turning to `CC(O)C(=O)N1CCC(NC(=O)Nc2ccc(OC(F)(F)F)cc2)CC1` (stereo not shown) [Compound M1, 1-(1-(2-hydroxypropanoyl)piperidin-4-yl)-3-(4-(trifluoromethoxy)phenyl)urea], in data set [1], the Cmax came out at 12000 ng/mL and the “time of Cmax in urine” value is reported as 12 h. Besides, in data set [2], the concentration at 8 h was found to be 8 ng/mL, the concentration at 12 h was 1.2 ng/mL, the concentration at 24 h turned out to be 5.6 ng/mL and the concentration at 48 h came to 3.6 ng/mL. Also, the concentration at 72 h in data set [2] was found to be 2.1 ng/mL. The concentration for half-maximal inhibition (IC50) at recombinant human sEH was 3 ± 0.5 nM. Also, the “fold more potent than M2 toward human sEH” value on recombinant human sEH (ratio of IC50 values, versus M2) is given as ~ 5 fold. Moreover, in data set [3], the concentration at 8 h amounted to 3.7 ng/mL, the concentration at 12 h is 5.7 ng/mL, the concentration at 24 h was found to be 1.1 ng/mL and the concentration at 48 h turned out to be 8.8 ng/mL. Moreover, the concentration at 72 h in data set [3] was 4.4 ng/mL. For the same molecule, the half-life in data set [4] (setting [6]) was approximately 20 h. Besides, the “T1/2 (half-life)” value in data set [4] (rat blood, oral gavage 10 mg/kg, n = 4, 10 mg/kg) was 20 ± 3 h. In data set [4] (rat blood), the “share of the total TPPU-related exposure in blood” value is ~ 9.6%. The “formation of metabolite in liver S9 fractions” value in data set [5] is reported as “found in all species tested”. For the same molecule, the “formation of metabolite in liver S9 fractions in the absence of a NADPH generation system” value in data set [5] (without NADPH, liver S9 fractions (Figure S1: human)) is recorded as “failed to be detected”.
Regarding `O=C(O)CC(=O)N1CCC(NC(=O)Nc2ccc(OC(F)(F)F)cc2)CC1` [Compound M4, 3-oxo-3-(4-(3-(4-(trifluoromethoxy)phenyl)ureido)piperidin-1-yl)propanoic acid], in data set [2], the concentration at 8 h stood at 1 ng/mL, the concentration at 12 h is 1.1 ng/mL, the concentration at 24 h was 2.4 ng/mL and the concentration at 48 h is 1.2 ng/mL. For the same molecule, in data set [2], the concentration at 72 h is 1.7 ng/mL. For the same molecule, the 50% inhibitory concentration (IC50) on recombinant human sEH was determined as 158 ± 10 nM. In data set [3], the concentration at 8 h came to 3 ng/mL, the concentration at 12 h stood at 1.2 ng/mL, the concentration at 24 h came to 2.2 ng/mL and the concentration at 48 h is 6.4 ng/mL. Besides, in data set [3], the concentration at 72 h is 2.1 ng/mL, the Cmax worked out at 22000 ng/mL and the “time of Cmax in feces” value turned out to be 24 h. Further, the half-life in data set [4] (setting [6]) was 17 ± 4.7 h. In data set [4] (male, Sprague Dawley, whole blood, rat blood, oral gavage 10 mg/kg, n = 4, read-out: Cmax (maximum blood concentration)), the Cmax stood at 53 ± 28 nM. The “share of the total TPPU-related exposure in blood” value in data set [4] (rat blood) was less than 0.4%. Moreover, the “formation of metabolite in liver S9 fractions” value in data set [5] is reported as “not detected”.
`CCC(=O)N1CCC(NC(=O)Nc2ccc(OC(F)(F)F)cc2)CC1` [TPPU, 1-(1-propionylpiperidin-4-yl)-3-(4-(trifluoromethoxy)phenyl)urea]: in data set [1], the Cmax is 5700 ng/mL and the “time of Cmax in urine” value came to 8 h. Moreover, in data set [2], the concentration at 8 h amounted to 5.7 ng/mL, the concentration at 12 h is 5.1 ng/mL, the concentration at 24 h worked out at 1.6 ng/mL and the concentration at 48 h was 4.6 ng/mL. Further, the concentration at 72 h in data set [2] stood at 1.1 ng/mL. For the same molecule, in data set [3], the concentration at 8 h stood at 1.8 ng/mL, the concentration at 12 h was determined as 2.4 ng/mL, the concentration at 24 h was determined as 1.9 ng/mL and the concentration at 48 h came out at 7 ng/mL. In data set [3], the concentration at 72 h was 1.5 ng/mL, the Cmax was 24000 ng/mL and the “time of Cmax in feces” value came to 12 h. The “share of the TPPU nucleus in the blood” value in data set [4] (rat blood, oral 10 mg/kg TPPU) is reported as “over 90%”. For the same molecule, the “TPPU remaining after incubation with liver S9 fractions” value in data set [5] (2 h of incubation, TPPU 10 μM, 0.05 mg protein/mL) was “over 90%”.
